Data taken from patent EP0359454B1, “CC-1065 analogs having two CPI subunits” (PHARMACIA & UPJOHN COMPANY, priority 1988, dated 1990).
≈ marks a conversion by molar mass, not a printed value.

Columns and labels:
[1] = in vitro and in vivo, depending upon the particular test system; cited from earlier work
[2] = Delayed death in animals without tumor; type: in vivo, murine; details: NO TUMOR
Text: (§1) Table 3 presents data comparing [S-(R*,R*)]-6,6′-[carbonylbis(imino-1H-indole-5,2-dicarbonyl)]bis[8-chloromethyl)-3,6,7,8-tetrahydro-1-methyl-benzo[1,2-b:4,3-b′]dipyrrol-4-ol (Compound 1) with (7bR)-N-[2-[(4,5,8,8a-tetrahydro-7-methyl-4-oxocyclopropa-[C]pyrrolo[3,2-e]indol-2(1H)0yl)carbonyl]-1H-indol-5-yl]-2-benzofurancarboxamide (U-73,975) in the other murine systems where the compounds have been run jointly.

[3] = tested on: Lewis Lung i.v.; experiment: Lewis Lung i.v. tumor, i.v. dose on days 1,5,9; type: in vivo, murine; details: for OD (optimum dose): i.v. dose on days 1,5,9; for T/C: i.v. dose on days 1,5,9, at optimum dose
Text: as §1
(§2) T/C refers to median life span of treated mice divided by median life span of control mice times 100.

[4] = tested on: L-1210 Leukemia; experiment: L-1210 leukemia in vivo, IV drug vs IP tumor, dosed on day 1; design: species or system Male BDF1 mice; details: for OD (optimum dose): i.v. dose on day 1
Text: as §1
(§3) The results set forth in Tables 1 and 4 were obtained using standard well known procedures (In Vivo Cancer, Models, NIH Publication No. 84-2635, 1984).
as §2

[5] = tested on: L-1210 i.p.; experiment: L-1210 i.p. tumor, i.p. dose on days 1,5,9; type: in vivo, murine; details: for OD (optimum dose): i.p. dose on days 1,5,9; for cures: i.p. dose on days 1,5,9, at optimum dose, survival 30 days = cured
Text: as §1, §3, §2

[6] = tested on: L-1210 sc; experiment: L-1210 sc tumor, i.p. dose on day 1; type: in vivo, murine; details: for OD (optimum dose) / cures: L-1210 sc; for OD (optimum dose): i.p. dose 1 on day 1; for cures: i.p. dose 1 on day 1, at optimum dose, survival 30 days = cured
Text: as §1, §3, §2

[7] = tested on: B-16 i.p.; experiment: B-16 i.p. tumor, i.v. dose on day 1; type: in vivo, murine; details: for OD (optimum dose): i.v. dose on day 1; for T/C: i.v. dose on day 1, at optimum dose
Text: The compounds of Formula I are particularly useful as antitumor agents. […] These murine test systems are predictive for clinically useful human antitumor agents (see, for examle, A. Geldin et al, European J. Cancer, Vol. 17, pp 129-142, 1981; J.M. Vendetti, Cancer Treatment Reports, Vol. 67, pp. 767-772, 1983; and J.M. Vendetti et al, Advances in Pharmacology and Chemotherapy, Vol. 20, pp. 1-20, 1984), and, therefore, the compounds of the subject invention (Formula I) will be useful in the control and treatment of susceptible neoplastic (cancer) diseases, including susceptible leukemics, in humans when given, for example, intravenously in doses of 0.001 µg/kg to about 10 mg/kg of body weight per day, the exact dose depending on the age, weight, and condition of the patient, and on the frequency of administration.
as §1, §2

[8] = tested on: L1210 leukemia cells; experiment: In vitro L1210 cell growth inhibition; type: cell-based, murine; details: Mus musculus, concentration of drug which inhibits cell growth 50%, read-out: ID50 (the source's name)
Text: as §1

[9] = IV drug vs IP tumor, dosed on day 1, T/C = median survival treated/control x 100, each value at the dose (1-600 µg/kg)

Row | Compound | factor by which less potent than CC-1065 [1] | Delayed death [2] | Delayed death ([2]; listed as Cpd 1) | OD (optimum dose) [3] | T/C [3] | cures ([4]; IV drug vs IP tumor, dosed on day 1, animals surviving 30 days are considered cured, at the dose (µg/kg)) | OD (optimum dose) ([4]; L-1210 i.p.) | cures ([4]; L-1210 i.p., i.v. dose on day 1, at optimum dose, animals which survive 30 days are considered cured) | In vivo L1210 activity (in words) ([4]; at 15 µg/kg) | OD (optimum dose) [5] | cures [5] | OD (optimum dose) [6] | cures [6] | Activity compared with U-73,975 (in words) ([6]; subcutaneous L1210 assay, over several dose ranges) | OD (optimum dose) [7] | T/C [7] | IC50 [8] | Delayed death ([2]; listed as U-73-975) | Best T/C [4, 9] | Best T/C ([4]; L-1210 i.p., i.v. dose on day 1, at optimum dose)
1 | COc1c(O)c2c(c3cc(C(=O)N4CCc5c4c(O)c(OC)c4[nH]c(C(=O)N6CC(COC(C)=O)c7c6cc(O)c6[nH]cc(C)c76)cc54)[nH]c13)CCN2C(N)=O (centres unmarked) [AAP, 7-[[7-[[1-[(acetyloxy)methyl]-1,6-dihydro-5-hydroxy-8-methylbenzo[1,2-b:4,3-b′]dipyrrol-3(2H)-yl]carbonyl]-1,6-dihydro-4-hydroxy-5-methoxybenzo[1,2:4,3-b′]-dipyrrol-3(2H)-yl]carbonyl]-1,6-dihydro-4-hydroxy-5-methoxy-benzo[1,2-b:4,3-b′]dipyrrole-3(2H)-carboxamide] | 10^3 to 10^4 |  |  |  |  |  |  |  |  |  |  |  |  |  |  |  |  |  |  | 
2 | Cc1c[nH]c2c(O)cc3c(c12)[C@H](CCl)CN3C(=O)c1cc2cc(NC(=O)Nc3ccc4[nH]c(C(=O)N5C[C@@H](CCl)c6c5cc(O)c5[nH]cc(C)c65)cc4c3)ccc2[nH]1 [Compound 1, [S-(R*,R*)]-6,6′-[carbonylbis(imino-1H-indole-5,2-dicarbonyl)]bis[8-chloromethyl)-3,6,7,8-tetrahydro-1-methylbenzo[1,2-b:4,3-b′]dipyrrol-4-ol] |  | not to cause delayed death | No Delayed Death | 0.004 mg/kg | 168 | 4/6 cures | 0.01 to 0.015 mg/kg | (4/6) | highly curative | 0.004 mg/kg | (3/6) | 0.01 to 0.025 mg/kg | (6/6) | superior activity | 0.015 mg/kg | 167 | 0.001 ng/mL (≈ 0.00123 nM) |  |  | 
3 | Cc1c[nH]c2c1[C@@]13C[C@@H]1CN(C(=O)c1cc4cc(NC(=O)c5cc6ccccc6o5)ccc4[nH]1)C3=CC2=O [U-73,975, (7bR)-N-[2-[(4,5,8,8a-tetrahydro-7-methyl-4-oxocyclopropa-[C]pyrrolo[3,2-e]indol-2(1H)0yl)carbonyl]-1H-indol-5-yl]-2-benzofurancarboxamide, reference compound] |  | not to cause delayed death |  | 0.025 mg/kg | 147 |  | 0.1 mg/kg |  |  | 0.02 mg/kg | (4/6) | 0.1 mg/kg | (4/6) |  | 0.1 mg/kg | 160 |  | No Delayed Death | 213 | 213
4 | Cc1c[nH]c2c1C13CC1CN(C(=O)c1cc4cc(NC(=O)Nc5ccc6[nH]c(C(=O)N7CC8CC89C7=CC(=O)c7[nH]cc(C)c79)cc6c5)ccc4[nH]1)C3=CC2=O (stereo not drawn) [Compound 2, [7bR-[2(7′bR*,8′aS*), 7bR*,8aS*]]-2,2′-[carbonylbis(imino-1H-indole-5,2-dicarbonyl)]bis[1,2,8,8a-tetrahydro-7-methyl-cyclopropa(c)pyrrolo[3,2-e]indol-4(5H)-one] |  |  |  |  |  |  |  |  |  |  |  |  |  |  |  |  | 0.001 ng/mL (≈ 0.00135 nM) |  | 169 | 
